Results from ChEMBL document CHEMBL1201862, “PubChem BioAssay data set” (2004).
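Assay format: 96-well plates, 48-hour exposure. GI50: concentration for 50% inhibition of growth.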 Activity calls are given as the source filed them. Cut-off read from the data, not from the text of the source: active = GI50 up to about 1.1 µM and inactive = higher.

Assays:
Test in all cases: inhibition of tumour cell growth, NCI panel, 48 h
U-251 = tested on: U-251
MDA-N = tested on: MDA-N
SR = tested on: SR
EKVX = tested on: EKVX
HCT-15 = tested on: HCT-15
DU-145 = tested on: DU-145
OVCAR-5 = tested on: OVCAR-5
NCI-H23 = tested on: NCI-H23
SK-MEL-28 = tested on: SK-MEL-28
SW-620 = tested on: SW-620
HCT-116 = tested on: HCT-116
CAKI-1 = tested on: CAKI-1
HOP-62 = tested on: HOP-62
UACC-257 = tested on: UACC-257
A498 = tested on: A498
HT-29 = tested on: HT-29
NCI/ADR-RES = tested on: NCI/ADR-RES
OVCAR-8 = tested on: OVCAR-8

## C[N+]1([O-])[C@H]2CC(OC(=O)[C@H](CO)c3ccccc3)C[C@H]1[C@H]1O[C@H]12 (some centres not stated)
U-251
  GI50: > 100 µM (inactive)
MDA-N
  GI50: > 100 µM (inactive)
SR
  GI50: > 100 µM (inactive)
EKVX
  GI50: > 100 µM (inactive)
HCT-15
  GI50: > 100 µM
DU-145
  GI50: > 100 µM (inactive)
OVCAR-5
  GI50: > 100 µM (inactive)
NCI-H23
  GI50: > 100 µM (inactive)
SK-MEL-28
  GI50: > 100 µM (inactive)
SW-620
  GI50: > 100 µM (inactive)
HCT-116
  GI50: > 100 µM (inactive)
CAKI-1
  GI50: > 100 µM (inactive)
HOP-62
  GI50: > 100 µM (inactive)
UACC-257
  GI50: > 100 µM (inactive)
A498
  GI50: > 100 µM (inactive)
HT-29
  GI50: > 100 µM (inactive)
NCI/ADR-RES
  GI50: > 100 µM (inactive)
OVCAR-8
  GI50: > 100 µM (inactive)

## O=C1c2ccccc2C(=O)c2c1ccc(C(=O)O)c2-c1ccc2ccccc2c1
U-251
  GI50: 21.9 µM (inactive)
MDA-N
  GI50: 26.5 µM (inactive)
SR
  GI50: 16.6 µM (inactive)
EKVX
  GI50: 20.6 µM (inactive)
HCT-15
  GI50: 19.6 µM
DU-145
  GI50: 16.2 µM (inactive)
OVCAR-5
  GI50: 22.5 µM (inactive)
NCI-H23
  GI50: 18.6 µM (inactive)
SK-MEL-28
  GI50: 40.2 µM (inactive)
SW-620
  GI50: 29.4 µM (inactive)
HCT-116
  GI50: 20.7 µM (inactive)
CAKI-1
  GI50: 29.3 µM (inactive)
HOP-62
  GI50: 32.2 µM (inactive)
UACC-257
  GI50: 49.8 µM (inactive)
A498
  GI50: 29 µM (inactive)
HT-29
  GI50: 32.5 µM (inactive)
NCI/ADR-RES
  GI50: 30.8 µM (inactive)
OVCAR-8
  GI50: 33.5 µM (inactive)

## Cc1cc2cc3c(O)nc(O)nc3nc2cc1C
U-251
  GI50: > 100 µM (inactive)
MDA-N
  GI50: > 100 µM (inactive)
SR
  GI50: > 100 µM (inactive)
EKVX
  GI50: > 100 µM (inactive)
HCT-15
  GI50: > 100 µM
DU-145
  GI50: > 100 µM (inactive)
OVCAR-5
  GI50: > 100 µM (inactive)
NCI-H23
  GI50: > 100 µM (inactive)
SK-MEL-28
  GI50: > 100 µM (inactive)
SW-620
  GI50: > 100 µM (inactive)
HCT-116
  GI50: > 100 µM (inactive)
CAKI-1
  GI50: > 100 µM (inactive)
HOP-62
  GI50: > 100 µM (inactive)
UACC-257
  GI50: > 100 µM (inactive)
A498
  GI50: > 100 µM (inactive)
HT-29
  GI50: > 100 µM (inactive)
NCI/ADR-RES
  GI50: > 100 µM (inactive)
OVCAR-8
  GI50: > 100 µM (inactive)

## O=C(O)CCCN1CCCCC1
U-251
  GI50: > 100 µM (inactive)
MDA-N
  GI50: > 100 µM (inactive)
SR
  GI50: > 100 µM (inactive)
EKVX
  GI50: > 100 µM (inactive)
HCT-15
  GI50: > 100 µM
DU-145
  GI50: > 100 µM (inactive)
OVCAR-5
  GI50: > 100 µM (inactive)
NCI-H23
  GI50: > 100 µM (inactive)
SK-MEL-28
  GI50: > 100 µM (inactive)
SW-620
  GI50: > 100 µM (inactive)
HCT-116
  GI50: > 100 µM (inactive)
CAKI-1
  GI50: > 100 µM (inactive)
HOP-62
  GI50: > 100 µM (inactive)
UACC-257
  GI50: > 100 µM (inactive)
A498
  GI50: > 100 µM (inactive)
HT-29
  GI50: > 100 µM (inactive)
NCI/ADR-RES
  GI50: > 100 µM (inactive)
OVCAR-8
  GI50: > 100 µM (inactive)

## O=C(O)Cc1ccccc1 [PHENYLACETIC ACID]
U-251
  GI50: > 100 µM (inactive)
MDA-N
  GI50: > 100 µM (inactive)
SR
  GI50: > 1000 µM (inactive)
EKVX
  GI50: > 100 µM (inactive)
HCT-15
  GI50: > 100 µM
DU-145
  GI50: > 100 µM (inactive)
OVCAR-5
  GI50: > 100 µM (inactive)
NCI-H23
  GI50: > 100 µM (inactive)
SK-MEL-28
  GI50: > 100 µM (inactive)
SW-620
  GI50: > 100 µM (inactive)
HCT-116
  GI50: > 100 µM (inactive)
CAKI-1
  GI50: > 100 µM (inactive)
HOP-62
  GI50: > 100 µM (inactive)
UACC-257
  GI50: > 100 µM (inactive)
A498
  GI50: > 100 µM (inactive)
HT-29
  GI50: > 100 µM (inactive)
NCI/ADR-RES
  GI50: > 100 µM (inactive)
OVCAR-8
  GI50: > 100 µM (inactive)

## Nn1c(S)nnc1C12CC3CC(CC(C3)C1)C2
U-251
  GI50: > 100 µM (inactive)
MDA-N
  GI50: > 100 µM (inactive)
SR
  GI50: > 100 µM (inactive)
EKVX
  GI50: > 100 µM (inactive)
HCT-15
  GI50: > 100 µM
DU-145
  GI50: > 100 µM (inactive)
OVCAR-5
  GI50: > 100 µM (inactive)
NCI-H23
  GI50: > 100 µM (inactive)
SK-MEL-28
  GI50: > 100 µM (inactive)
SW-620
  GI50: > 100 µM (inactive)
HCT-116
  GI50: > 100 µM (inactive)
CAKI-1
  GI50: > 100 µM (inactive)
HOP-62
  GI50: > 100 µM (inactive)
A498
  GI50: > 100 µM (inactive)
HT-29
  GI50: > 100 µM (inactive)
NCI/ADR-RES
  GI50: > 100 µM (inactive)

## Cc1nc(Cl)c2sc(=S)n(-c3ccc(F)cc3)c2n1
U-251
  GI50: 5.06 µM (inactive)
MDA-N
  GI50: 1.87 µM (inactive)
SR
  GI50: 1.39 µM (inactive)
EKVX
  GI50: 13.2 µM (inactive)
HCT-15
  GI50: 3.21 µM
DU-145
  GI50: 1.51 µM (inactive)
OVCAR-5
  GI50: 10.8 µM (inactive)
NCI-H23
  GI50: 1.27 µM (inactive)
SK-MEL-28
  GI50: 2.33 µM (inactive)
SW-620
  GI50: 3.7 µM (inactive)
HCT-116
  GI50: 1.75 µM (inactive)
CAKI-1
  GI50: 1.56 µM (inactive)
HOP-62
  GI50: 2.22 µM (inactive)
UACC-257
  GI50: 2.54 µM (inactive)
A498
  GI50: 1.58 µM (inactive)
HT-29
  GI50: 2.28 µM (inactive)
NCI/ADR-RES
  GI50: 6.56 µM (inactive)
OVCAR-8
  GI50: 14.6 µM (inactive)

## NC(=O)/N=C(\N)NC(=O)c1ccccc1
U-251
  GI50: > 100 µM (inactive)
MDA-N
  GI50: > 100 µM (inactive)
SR
  GI50: > 100 µM (inactive)
EKVX
  GI50: > 100 µM (inactive)
HCT-15
  GI50: > 100 µM
DU-145
  GI50: > 100 µM (inactive)
OVCAR-5
  GI50: > 100 µM (inactive)
NCI-H23
  GI50: > 100 µM (inactive)
SK-MEL-28
  GI50: > 100 µM (inactive)
SW-620
  GI50: > 100 µM (inactive)
HCT-116
  GI50: > 100 µM (inactive)
CAKI-1
  GI50: > 100 µM (inactive)
HOP-62
  GI50: > 100 µM (inactive)
UACC-257
  GI50: > 100 µM (inactive)
A498
  GI50: > 100 µM (inactive)
HT-29
  GI50: > 100 µM (inactive)
NCI/ADR-RES
  GI50: > 100 µM (inactive)
OVCAR-8
  GI50: > 100 µM (inactive)
